We go through ten compounds from PubChem BioAssay (NCI).

Where “and” joins values, the source holds several entries; their conditions need not be identical. Identical values can stand only once.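 Assay format: 96-well plates, 48-hour exposure. Abbreviation: GI50, concentration required for 50% inhibition of growth. TGI denotes the concentration required for complete inhibition of growth.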

Test systems include SNB-75 CNS; 786-0 renal; PC-3 prostate; SK-MEL-2 melanoma; HL-60(TB) leukemia; SK-OV-3 ovarian; HOP-92 NSCLC; SF-539 CNS; OVCAR-3 ovarian; HT29 colon.
Holding throughout (assay): growth of human tumour cells (NCI), 48 h

With `OCC(O)C(O)C(O)C1SC(c2ccccc2)=NN1c1ccccc1` (stereo not given), the TGI was 35.5 µM in the experiment on SNB-75 CNS; > 100 µM with 786-0 renal; > 100 µM in the experiment on PC-3 prostate; 93.2 µM with SK-MEL-2 melanoma; > 100 µM in the experiment on HL-60(TB) leukemia; 76.9 µM in the experiment on SK-OV-3 ovarian. For the same compound, the TGI in the experiment on HOP-92 NSCLC is 63.4 µM; in the experiment with SF-539 CNS, 98.7 µM; in the experiment on OVCAR-3 ovarian, > 87.6 µM; in the experiment on HT29 colon it was > 100 µM.

For `COc1ccccc1C1=C2C(=O)N(C)C(c3ccccc3OC)=C2C(=O)N1C`, the TGI in the experiment with 786-0 renal was 85.5 µM; with PC-3 prostate, > 100 µM; with HL-60(TB) leukemia, > 100 µM; in the experiment with SK-OV-3 ovarian, > 100 µM; with HOP-92 NSCLC it was > 100 µM; in the experiment on SF-539 CNS it was 64.2 µM. Further, the TGI with OVCAR-3 ovarian and in the experiment on HT29 colon was > 100 µM each time.

`C=C(Cl)COC(=O)Nc1cccc(Cl)c1`: the TGI in the experiment with SNB-75 CNS was 83.7 µM; with 786-0 renal, 92.2 µM; with PC-3 prostate, 84.6 µM; in the experiment with SK-MEL-2 melanoma, 58.5 µM; with HL-60(TB) leukemia it was 94.6 µM; in the experiment on SK-OV-3 ovarian, > 100 µM. Moreover, the TGI with HOP-92 NSCLC was 64.9 µM; with SF-539 CNS, > 100 µM; in the experiment on OVCAR-3 ovarian, > 100 µM; in the experiment with HT29 colon, > 100 µM.

For the compound `CCOC(=O)CCCn1c(SC)nc2cc(-c3ccco3)[nH]c2c1=O`, the GI50 is 4.55 µM in the experiment on SNB-75 CNS; 34.2 µM with 786-0 renal; > 100 µM in the experiment on PC-3 prostate; 36.4 µM in the experiment with SK-MEL-2 melanoma; > 100 µM in the experiment on HL-60(TB) leukemia; 5.74 µM in the experiment with SK-OV-3 ovarian. Moreover, the GI50 is 25.6 µM in the experiment with HOP-92 NSCLC, 20.4 µM with SF-539 CNS, 48.2 µM in the experiment on OVCAR-3 ovarian and > 100 µM with HT29 colon. Moreover, the TGI was 17.7 µM with SNB-75 CNS; > 100 µM with 786-0 renal; > 100 µM in the experiment on PC-3 prostate; > 100 µM in the experiment on SK-MEL-2 melanoma; > 100 µM in the experiment with HL-60(TB) leukemia; 32.5 µM in the experiment with SK-OV-3 ovarian. Moreover, the TGI in the experiment on HOP-92 NSCLC was 65.7 µM; in the experiment with SF-539 CNS it was 53.2 µM; with OVCAR-3 ovarian, > 100 µM; in the experiment on HT29 colon, > 100 µM.

Regarding `COC1/C=C\C=C(/C)C(=O)Nc2cc3nc4ccc(Br)cc4oc-3c(c2=O)CC(C)CC(OC)C(O)C(C)/C=C(\C)C1OC(N)=O` (stereo not given), the TGI amounted to 23.8 µM with SNB-75 CNS; 12 µM in the experiment on 786-0 renal; 24.5 µM in the experiment with PC-3 prostate; 24.5 µM with SK-MEL-2 melanoma; 15.3 µM with SK-OV-3 ovarian; 4.81 µM in the experiment on HOP-92 NSCLC. For the same compound, the TGI amounted to 11.3 µM with SF-539 CNS, 3.84 µM with OVCAR-3 ovarian and 7.91 µM in the experiment on HT29 colon. The GI50 in the experiment on 786-0 renal was 0.00576 µM; in the experiment with PC-3 prostate it was 0.00574 µM; in the experiment on HL-60(TB) leukemia, 0.000389 µM; in the experiment on HOP-92 NSCLC it was 0.00757 µM; with SF-539 CNS it was 0.00745 µM.

For the compound `CC(=O)Nc1nc(SCc2ccccc2)c2ncn(C(C)=O)c2n1`, the GI50 was 44.7 µM in the experiment with SNB-75 CNS; 72.5 µM in the experiment on 786-0 renal; 72.2 µM in the experiment with PC-3 prostate; 63 µM in the experiment with HL-60(TB) leukemia; 55.9 µM with SK-OV-3 ovarian; 97.7 µM with SF-539 CNS. Also, the GI50 was 84.3 µM with OVCAR-3 ovarian and 63.4 µM with HT29 colon. Moreover, the TGI with SNB-75 CNS, with 786-0 renal, in the experiment on PC-3 prostate, in the experiment on HL-60(TB) leukemia, in the experiment with SK-OV-3 ovarian and in the experiment on SF-539 CNS was > 100 µM throughout. In addition, the TGI in the experiment with OVCAR-3 ovarian and in the experiment on HT29 colon was > 100 µM each time.

On to `C[C@]12CC[C@H](O)CC1=CC[C@@H]1C2CC[C@]2(C)c3nn(-c4ccc(F)cc4)nc3CC12` (stereo not given in full), for which the TGI in the experiment on SNB-75 CNS was 74.4 µM; with 786-0 renal, > 100 µM; in the experiment with PC-3 prostate it was > 100 µM; in the experiment on HL-60(TB) leukemia, > 100 µM; in the experiment on SK-OV-3 ovarian it was > 100 µM; in the experiment with HOP-92 NSCLC, > 100 µM. The TGI with SF-539 CNS was > 100 µM; in the experiment with OVCAR-3 ovarian it was > 100 µM; in the experiment with HT29 colon, 73 µM.

For the compound `CC1(C)OC[C@@H]([C@@]2(CO[Si](C)(C)C(C)(C)C)CC=CC(=O)O2)O1`, the GI50 with 786-0 renal was 20.7 µM; in the experiment on PC-3 prostate it was 19.6 µM; in the experiment with SK-MEL-2 melanoma, 40.4 µM; in the experiment with SK-OV-3 ovarian, 30.4 µM; in the experiment with HOP-92 NSCLC, 14.1 µM; with SF-539 CNS, 20.6 µM. The GI50 is 15.9 µM in the experiment on OVCAR-3 ovarian and 34.5 µM with HT29 colon. The TGI in the experiment on 786-0 renal is 40.4 µM; in the experiment with PC-3 prostate, 74.2 µM; in the experiment on SK-MEL-2 melanoma, > 100 µM; with SK-OV-3 ovarian, 88.5 µM; in the experiment with HOP-92 NSCLC, 43.4 µM; in the experiment with SF-539 CNS it was 42.4 µM. Further, the TGI was 39.7 µM in the experiment with OVCAR-3 ovarian and > 100 µM in the experiment on HT29 colon.

For the compound `O=C1/C(=C/c2ccc(O)c([N+](=O)[O-])c2)CCC/C1=C\c1ccc(O)c([N+](=O)[O-])c1`, the TGI with SNB-75 CNS is 6.65 µM; with 786-0 renal, 25.5 µM and > 100 µM; with PC-3 prostate it was 50 µM and 22.8 µM; in the experiment on SK-MEL-2 melanoma, 32.2 µM and 27.2 µM; with HL-60(TB) leukemia, 50 µM and 45.1 µM; in the experiment on SK-OV-3 ovarian, 50 µM and > 100 µM. Also, the TGI with SF-539 CNS was 50 µM; with OVCAR-3 ovarian it was 17.1 µM and > 100 µM; in the experiment with HT29 colon it was 30.7 µM and 37.6 µM. The GI50 in the experiment with 786-0 renal is 43.7 µM; in the experiment with PC-3 prostate, 9.12 µM; in the experiment on SK-MEL-2 melanoma, 13 µM; in the experiment with HL-60(TB) leukemia it was 16.7 µM; in the experiment on SK-OV-3 ovarian, 22.2 µM; in the experiment with OVCAR-3 ovarian, 2.54 µM. Moreover, in the experiment with HT29 colon, the GI50 is 19 µM.

Turning to `CCCc1ccc(S(=O)(=O)N[C@H]2CC[C@H]3[C@@H]4CCc5cc(O)ccc5[C@H]4CC[C@]23C)cc1`, the GI50 is 2.23 µM with SNB-75 CNS; 3.02 µM with 786-0 renal; 2.52 µM with PC-3 prostate; 2.72 µM in the experiment on SK-MEL-2 melanoma; 3.65 µM in the experiment with SK-OV-3 ovarian; 1.91 µM in the experiment on HOP-92 NSCLC. The GI50 with SF-539 CNS is 2.12 µM; with HT29 colon it was 3.19 µM. In addition, the TGI came to 9.98 µM in the experiment on SNB-75 CNS; 9.16 µM with 786-0 renal; 11.7 µM in the experiment with PC-3 prostate; 7.12 µM with SK-MEL-2 melanoma; 12.4 µM in the experiment with SK-OV-3 ovarian; 5.65 µM with HOP-92 NSCLC. Further, the TGI was 4.46 µM in the experiment on SF-539 CNS and 10.2 µM in the experiment with HT29 colon.
